We go through one compound from BindingDB's records for PubMed 36346645 (University of Copenhagen, 2022).

The assay has as its target Calcium/calmodulin-dependent protein kinase type II subunit alpha (Rattus norvegicus, UniProt P11275). Kind of assay: Displacement of [3H]NCS-382 from CaMK2alpha in rat brain cortical membrane homogenates measured after 1 hr by TopCount scintillation counting method.

pKi: −log10 of the molar value.

Calcium/calmodulin-dependent protein kinase type II subunit alpha, sequence (P11275 whole entry): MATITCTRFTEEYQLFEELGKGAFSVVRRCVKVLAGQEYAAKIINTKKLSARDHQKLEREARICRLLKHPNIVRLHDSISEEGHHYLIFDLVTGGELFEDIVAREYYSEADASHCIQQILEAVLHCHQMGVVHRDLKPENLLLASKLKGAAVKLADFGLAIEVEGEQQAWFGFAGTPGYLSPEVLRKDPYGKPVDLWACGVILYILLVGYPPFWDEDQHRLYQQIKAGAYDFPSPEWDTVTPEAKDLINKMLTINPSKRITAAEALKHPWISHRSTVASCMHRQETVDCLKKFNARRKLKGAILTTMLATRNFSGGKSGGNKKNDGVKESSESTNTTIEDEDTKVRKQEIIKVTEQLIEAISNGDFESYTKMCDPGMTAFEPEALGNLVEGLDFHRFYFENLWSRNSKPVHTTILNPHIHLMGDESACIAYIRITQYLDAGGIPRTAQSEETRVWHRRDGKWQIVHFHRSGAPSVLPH

Turning to `O=C(O)/C=C1\CCCc2cc(I)ccc2C1O` (stereo unspecified), the pKi was 7.30.
